Measured values from US7754736B2, “5-aminoindole derivatives as H3 inverse agonists” (Hoffmann-La Roche Inc., priority 2005, dated 2010).
Where a name gives a salt, the structure may show the parent alone.

biological target: T1, histamine 3 receptor (H3R) (Homo sapiens, UniProt Q9Y5N1); assay: Competition binding assay with 3H-(R)α-methylhistamine on membranes of the human HR3-CHO cell line; conditions: competition with 3H(R)α-Methylhistamine (1 nM), Ki calculated from IC50 by Cheng-Prusoff equation
T1 construct: expressed in transfected cells; host or cells: CHO cells
Protocol: Binding Assay with ^3H-(R)α-methylhistamine Saturation binding experiments were performed using HR3-CHO membranes prepared as described in […]. Pharmacol. Exp. Therapeutics 307, 213-218. An appropriate amount of membrane (60 to 80 μg protein/well) was incubated with increasing concentrations of ^3H(R)α-Methylhistamine di-hydrochloride (0.10 to 10 nM). Non specific binding was determined using a 200 fold excess of cold (R)α-Methylhistamine dihydrobromide (500 nM final concentration). The incubation was carried out at room temperature (in deep-well plates shaking for three hours). The final volume in each well was 250 μl. The incubation was followed by rapid filtration on GF/B filters (pre-soaked with 100 μl of 0.5% PEI in Tris 50 mM shaking at 200 rpm for two hours). The filtration was made using a cell-harvester and the filter plates were then washed five times with ice cold washing buffer containing 0.5 M NaCl. After harvesting, the plates were dried at 55° C. for 60 min, then we added scintillation fluid (Microscint 40, 40 microl in each well) and the amount of radioactivity on the filter was determined in Packard top-counter after shaking the plates for two hours at 200 rpm at room temperature. Binding Buffer: 50 mM Tris-HCl pH 7.4 and 5 mM MgCl2×6H2O pH 7.4. Washing Buffer: 50 mM Tris-HCl pH 7.4 and 5 mM MgCl2×6H2O and 0.5 M NaCl pH 7.4. […] An appropriate amount of protein, e.g. approximately 500 cpm binding of RAMH at Kd, were incubated for 1 hour at room temperature in 250 μl final volume in 96-well plates in presence of ^3H(R)α-Methylhistamine (1 nM final concentration=Kd). Non-specific binding was determined using a 200 fold excess of cold (R)α-Methylhistamine dihydrobromide. All compounds were tested at a single concentration in duplicates. […] Ki's were calculated from IC50 based on Cheng-Prusoff equation (Cheng, Y, Prusoff, W H (1973) Biochem Pharmacol 22, 3099-3108).

T1 sequence (Q9Y5N1 whole entry): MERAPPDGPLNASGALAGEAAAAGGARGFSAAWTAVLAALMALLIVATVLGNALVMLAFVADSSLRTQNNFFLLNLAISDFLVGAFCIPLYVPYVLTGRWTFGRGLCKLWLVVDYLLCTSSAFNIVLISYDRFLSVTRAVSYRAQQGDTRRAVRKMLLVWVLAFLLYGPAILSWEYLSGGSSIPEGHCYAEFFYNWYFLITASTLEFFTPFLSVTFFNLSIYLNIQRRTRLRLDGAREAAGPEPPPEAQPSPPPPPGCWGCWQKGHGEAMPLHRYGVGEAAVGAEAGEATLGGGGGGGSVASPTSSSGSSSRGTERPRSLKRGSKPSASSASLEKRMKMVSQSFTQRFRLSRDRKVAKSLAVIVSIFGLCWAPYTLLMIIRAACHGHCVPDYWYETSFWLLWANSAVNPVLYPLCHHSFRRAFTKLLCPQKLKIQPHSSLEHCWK

SMILES	Ki [µM]
CC(C)N1CCC(Nc2ccc3[nH]c(C(=O)N4CCOCC4)cc3c2)C1 (stereo not drawn) [Example 11, [5-(1-isopropyl-pyrrolidin-3-ylamino)-1H-indol-2-yl]-morpholin-4-yl-methanone bis-hydrochloride]	0.256
CC(C)N1CCC(Nc2ccc3[nH]c(C(=O)N4CCOCC4)cc3c2)CC1 [Example 3, [5-(1-isopropyl-piperidin-4-ylamino)-1H-indol-2-yl]-morpholin-4-yl-methanone]	0.0475
CC(C)N1CCC(Oc2ccc3[nH]c(C(=O)N(C)C(C)C)cc3c2)CC1 [Example 19, 5-(1-isopropyl-piperidin-4-yloxy)-1H-indole-2-carboxylic acid isopropyl-methyl-amide]	0.066
